Experimental data from US10669283B2, “Compound and pharmacologically acceptable salt thereof” (MEIJI SEIKA PHARMA CO., LTD., priority 2016, dated 2020).

Test system: PDE4
Experiment: PDE4 inhibition, scintillation proximity assay (SPA);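 note: A below 100 nM B 100 to below 1000 nM C 1000 nM or more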
Type: biochemical
Conditions: scintillation proximity assay (SPA); evaluated as classes A, B, C; read-out: PDE4 Inhibitory Activity (concentration for the inhibition rate of 50%)
Procedure, shortened: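 Compound pre-diluted 1:10 in 50 mM Tris-HCl pH 7.4, 8.3 mM MgCl2, 1.7 mM EGTA, 3 mg/mL BSA, then incubated with PDE4 and [2,8-3H]-cAMP for 120 min at room temperature. Product captured on ZnSO4-containing YSi-SPA beads for 15 min; radioactivity counted against no-enzyme blank and DMSO control.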

Row | SMILES | IC50
1 | N#CCOC(c1cc(-c2nccs2)c2oc(N3CC4CC(C3)N4)nc2c1)C(F)(F)F (centres unmarked) [Example 152, 2-(1-(2-(3,6-Diazabicyclo[3.1.1]heptan-3-yl)-7-(thiazol-2-yl)benzo[d]oxazol-5-yl)-2,2,2-trifluoroethoxy)acetonitrile] | < 100 nM
2 | N#CCOC(c1cc(-c2nccs2)c2oc(N3CC4CCC(C3)N4)nc2c1)C(F)(F)F (centres unmarked) [Example 153, 2-(1-(2-(3,8-Diazabicyclo[3.2.1]octan-3-yl)-7-(thiazol-2-yl)benzo[d]oxazol-5-yl)-2,2,2-trifluoroethoxy)acetonitrile] | < 100 nM
3 | COCCOC(c1cc(-c2nccs2)c2oc(N3CC4CC(C3)N4)nc2c1)C(F)(F)F (centres unmarked) [Example 154, 2-(3,6-Diazabicyclo[3.1.1]heptan-3-yl)-7-(thiazol-2-yl)-5-(2,2,2-trifluoro-1-(2-methoxyethoxy)ethyl)benzo[d]oxazole] | < 100 nM
4 | CC(O)COC(c1cc(-c2nccs2)c2oc(N3CC4CCC(C3)N4)nc2c1)C(F)(F)F (centres unmarked) [Example 155, 1-(1-(2-(3,8-Diazabicyclo[3.2.1]octan-3-yl)-7-(thiazol-2-yl)benzo[d]oxazol-5-yl)-2,2,2-trifluoroethoxy)propan-2-ol] | < 100 nM
5 | OC(O)(c1cc(-c2nccs2)c2oc(N3CC4CCCC(C3)N4)nc2c1)C(F)(F)F [Example 156, 1-(2-(3,9-Diazabicyclo[3.3.1]nonan-3-yl)-7-(thiazol-2-yl)benzo[d]oxazol-5-yl)-2,2,2-trifluoroethane-1,1-diol] | < 100 nM
6 | OC(O)(c1cc(-c2nccs2)c2oc(N3CC4CCC(C3)N4)nc2c1)C(F)(F)F [Example 157, 1-(2-(3,8-Diazabicyclo[3.2.1]octan-3-yl)-7-(thiazol-2-yl)benzo[d]oxazol-5-yl)-2,2,2-trifluoroethane-1,1-diol] | < 100 nM
7 | OC(O)(c1cc(-c2nccs2)c2oc(N3CC4CC(C3)N4)nc2c1)C(F)(F)F [Example 158, 1-(2-(3,6-Diazabicyclo[3.1.1]heptan-3-yl)-7-(thiazol-2-yl)benzo[d]oxazol-5-yl)-2,2,2-trifluoroethane-1,1-diol] | 100 to 1000 nM
8 | CC(O)(c1cc(-c2nccs2)c2oc(N3CC4CCC(C3)N4)nc2c1)C(F)(F)F (centres unmarked) [Example 159, 2-(2-(3,8-Diazabicyclo[3.2.1]octan-3-yl)-7-(thiazol-2-yl)benzo[d]oxazol-5-yl)-1,1,1-trifluoropropan-2-ol] | < 100 nM
9 | CC(O)(c1cc(-c2nccs2)c2oc(N3CC4CC(C3)N4)nc2c1)C(F)(F)F (centres unmarked) [Example 160, 2-(2-(3,6-Diazabicyclo[3.1.1]heptan-3-yl)-7-(thiazol-2-yl)benzo[d]oxazol-5-yl)-1,1,1-trifluoropropan-2-ol] | < 100 nM
10 | CC(O)(c1cc(-c2nccs2)c2oc(N3CC4CCCC(C3)N4)nc2c1)C(F)(F)F (centres unmarked) [Example 161, 2-(2-(3,9-Diazabicyclo[3.3.1]nonan-3-yl)-7-(thiazol-2-yl)benzo[d]oxazol-5-yl)-1,1,1-trifluoropropan-2-ol] | < 100 nM
11 | COC(C)(c1cc(-c2nccs2)c2oc(N3CC4CCCC(C3)N4)nc2c1)C(F)(F)F (centres unmarked) [Example 162] | < 100 nM
12 | CCOC(=O)c1cc(-c2nccs2)c2oc(N3CC4CCC(C3)N4)nc2c1C(F)(F)F [Example 163, Ethyl 2-(3,8-diazabicyclo[3.2.1]octan-3-yl)-7-(thiazol-2-yl)-4-(trifluoromethyl)benzo[d]oxazole-5-carboxylate] | < 100 nM
13 | CCOC(=O)c1cc(-c2nccs2)c2oc(N3CC4CCCC(C3)N4)nc2c1C(F)(F)F [Example 164, Ethyl 2-(3,9-diazabicyclo[3.3.1]nonan-3-yl)-7-(thiazol-2-yl)-4-(trifluoromethyl)benzo[d]oxazole-5-carboxylate] | < 100 nM
14 | CCOC(=O)c1cc(-c2nccs2)c2oc(N3CC4CC(C3)N4)nc2c1C(F)(F)F [Example 165, Ethyl 2-(3,6-diazabicyclo[3.1.1]heptan-3-yl)-7-(thiazol-2-yl)-4-(trifluoromethyl)benzo[d]oxazole-5-carboxylate] | < 100 nM
15 | CC(C)(O)c1cc(-c2nccs2)c2oc(N3CC4CCCC(C3)N4)nc2c1C(F)(F)F [Example 166, 2-(2-(3,9-Diazabicyclo[3.3.1]nonan-3-yl)-7-(thiazol-2-yl)-4-(trifluoromethyl)benzo[d]oxazol-5-yl)propan-2-ol] | < 100 nM
16 | COCc1cc(-c2nccs2)c2oc(N3CC4CCC(C3)N4)nc2c1C(F)(F)F [Example 167, 2-(3,8-Diazabicyclo[3.2.1]octan-3-yl)-5-(methoxymethyl)-7-(thiazol-2-yl)-4-(trifluoromethyl)benzo[d]oxazole] | < 100 nM
17 | c1csc(-c2cc(CN3CCOCC3)cc3nc(N4CC5CCC(C4)N5)oc23)n1 [Example 168, 2-(3,8-Diazabicyclo[3.2.1]octan-3-yl)-5-(morpholinomethyl)-7-(thiazol-2-yl)benzo[d]oxazole] | < 100 nM
18 | CN(C)Cc1cc(-c2nccs2)c2oc(N3CC4CCC(C3)N4)nc2c1 [Example 169, 1-(2-(3,8-Diazabicyclo[3.2.1]octan-3-yl)-7-(thiazol-2-yl)benzo[d]oxazol-5-yl)-N,N-dimethylmethanamine] | < 100 nM
19 | OCc1cc(-c2nccs2)c2oc(N3CC4CCC(C3)N4)nc2c1C(F)(F)F [Example 170, (2-(3,8-Diazabicyclo[3.2.1]octan-3-yl)-7-(thiazol-2-yl)-4-(trifluoromethyl)benzo[d]oxazol-5-yl)methanol] | < 100 nM
20 | COC(C)(C)c1cc(-c2nccs2)c2oc(N3CC4CCC(C3)N4)nc2c1C(F)(F)F [Example 171, 2-(3,8-Diazabicyclo[3.2.1]octan-3-yl)-5-(2-methoxypropan-2-yl)-7-(thiazol-2-yl)-4-(trifluoromethyl)benzo[d]oxazole] | < 100 nM
21 | CC(C)(O)c1cc(-c2nccs2)c2oc(N3CC4CCC(C3)N4)nc2c1 [Example 172, 2-(2-(3,8-Diazabicyclo[3.2.1]octan-3-yl)-7-(thiazol-2-yl)benzo[d]oxazol-5-yl)propan-2-ol] | < 100 nM
22 | CC(C)(O)c1cc(-c2nccs2)c2oc(N3CC4CC(C3)N4)nc2c1 [Example 173, 2-(2-(3,6-Diazabicyclo[3.1.1]heptan-3-yl)-7-(thiazol-2-yl)benzo[d]oxazol-5-yl)propan-2-ol] | < 100 nM
23 | COC(C)(C)c1cc(-c2nccs2)c2oc(N3CC4CC(C3)N4)nc2c1 [Example 174, 2-(3,6-Diazabicyclo[3.1.1]heptan-3-yl)-5-(2-methoxypropan-2-yl)-7-(thiazol-2-yl)benzo[d]oxazole] | < 100 nM
24 | COC(C)(C)c1cc(-c2nccs2)c2oc(N3CC4CCC(C3)N4)nc2c1 [Example 175, 2-(3,8-Diazabicyclo[3.2.1]octan-3-yl)-5-(2-methoxypropan-2-yl)-7-(thiazol-2-yl)benzo[d]oxazole] | < 100 nM
25 | COC(C)(C)c1cc(-c2nccs2)c2oc(N3CC4CC(C3)N4)nc2c1C(F)(F)F [Example 176, 2-(3,6-Diazabicyclo[3.1.1]heptan-3-yl)-5-(2-methoxypropan-2-yl)-7-(thiazol-2-yl)-4-(trifluoromethyl)benzo[d]oxazole] | < 100 nM
26 | CC(C)(O)c1cc(-c2nccs2)c2oc(N3CC4CCC(C3)N4)nc2c1C(F)(F)F [Example 177, 2-(2-(3,8-Diazabicyclo[3.2.1]octan-3-yl)-7-(thiazol-2-yl)-4-(trifluoromethyl)benzo[d]oxazol-5-yl)propan-2-ol] | < 100 nM
